In patent US11291655B2, “RAD51 inhibitors” (Cyteir Therapeutics, Inc., priority 2017, dated 2022) one finds EC50 data, which are given here for 46 compounds.

This assay has as its system Daudi Cell Culture. The assay can be described thus: Compound primary screening in Daudi cell culture. Format: cell-based. To be noted: Homo sapiens, 168 h; Daudi cells, 1250 cells per well, reads on Day 7. Here is the method: Compound Primary Screening
1. Materials and Supplies
Plastic ware and consumables needed for this experiment include: Cell Culture media; Evaporation Buffer media; 100% DMSO; 96 well U-bottom sterile culture plates; 250 mL bottle; 1.5 mL Opaque amber epi tubes; Epi Tube rack; 300 mL reservoirs; 25 mL reservoir; 25 mL serological pipette tips; 5 mL serological pipette tips P1000 Pipette Tips; and P200 Pipette Tips.
Equipment needed for this experiment include: Viaflo 384 liquid handler; Eppendorf serological pipette; Eppendorf P1000 Pipette; and Eppendorf P200 Pipette
Daudi Cell Culture is also needed for this experiment.
Lastly, compounds (e.g., the compounds of this invention) to be tested are needed.
All steps were performed in a sterile environment inside the Biosafety cabinet.
A 96 well u-bottom plate was prepared by writing the experiment number, plate number, date and initials in the top right corner of the plate lid. With a sterile 300 ml reservoir, and 25 ml serological pipette, evaporation buffer media was pipetted into reservoir in 25 ml increments. Using the liquid handler, 150 ul of evaporation buffer media was pipetted from reservoir into rows A and H, and Columns 1 and 12 of the 96 well u-bottom plate. Cell cultures were counted to obtain the density of cells per ml, and the culture viability. The cell density information was used to obtain 1,000,000 cells from culture using a 5 mL serological pipette into an epi tube. The cell density information from the culture was used to calculate the number of cells and volume of media needed for the assay to seed 1250 cells in 130 ul of media per available culture well in the 96 well u-bottom plate. Rows B through F were used for cells (50 wells in total), with row G left for an empty media control. The calculation was overestimated by 10 mL to account for the dead volume in the 300 ml reservoir. Once the media volume was calculated, the appropriate volume of media was pipetted in 25 mL increments into the 250 mL bottle using a 25 mL serological pipette. The 250 ml bottle was capped tightly, and placed into a 37° C. water bath for 2 minutes. While the culture media was warming, 10 mL of fresh media was pipetted from the 500 mL culture media bottle into a sterile 25 mL reservoir. Using the Eppendorf multichannel pipette, 130 ul of media was pipetted from the 25 mL reservoir into row G of the 96 well u-bottom plate. Once the 250 mL bottle of media was warmed, the volume of culture needed was pipetted into the bottle, and mixed gently with a 25 mL serological pipette as to not create bubbles, and then the contents of the bottle were pipetted into a new 300 mL reservoir. Using the liquid handler, 130 ul of culture was pipetted from the 300 mL reservoir into rows B through F of the 96 well u-bottom plate. Once the culture was added, the plate was placed into a 37° C. incubator until the compound master plate was prepared for use.
Two 96 well u-bottom plates were prepared by writing the master plate name in the upper right corner of the plate lid. Labeling one DMSO master and the other Media Master. The compounds of interest were obtained from the laboratory freezer, and placed into a 25 well storage box with a lid, and set the box aside. The compounds were vortexed after thawing but before use. Using an automatic multichannel pipette, 20 ul of 100% DMSO was pipetted into wells B3-B11 through G3-G11 of the DMSO master plate. For each compound on the master plate, 50 ul of the compound were pipetted in the appropriate well of row 2 (reference plate map to determine appropriate well). A serial dilution was prepared beginning by aspirating 20 ul from row 2 and mixing with row 3, repeating until row 11 was reached. Using the liquid handler, 194 ul of Daudi media was dispensed into wells B2-B11 through G2-G11 of the Media master plate. Using the liquid handler, 6 ul from the DMSO master plate was aspirated and dispensed into the media master plate, mixing 100 ul twice. […]
With `CC(=O)Nc1ccc(-c2cnc(-c3ccc(NC(=S)NC(C)C)cc3)s2)c(S(=O)(=O)NCCCN(C)C)c1` [Compound D25], the 50% effective concentration (EC50) was < 1 µM.
Then `CC(=O)Nc1ccc(-c2cnc(-c3ccc(NC(=S)NC(C)C)cc3)s2)c(S(=O)(=O)NCCOCCO)c1` [Compound D26], with > 10 µM.
Under `COCCNS(=O)(=O)c1cc(NC(C)=O)ccc1-c1cnc(-c2ccc(NC(=S)NC(C)C)cc2)s1` [Compound D27] stands > 10 µM; under `CC(=O)Nc1ccc(-c2cnc(-c3ccc(NC(=S)NC(C)C)cc3)s2)c(S(=O)(=O)NCCO)c1` [Compound D28], > 10 µM.
Under `CNCCNS(=O)(=O)c1cc(NC(C)=O)ccc1-c1cnc(-c2ccc(NC(=S)NC(C)C)cc2)s1` [Compound D29] stands > 10 µM.
As to `CC(=O)Nc1ccc(-c2cnc(-c3ccc(NC(=S)NC(C)C)cc3)s2)c(S(=O)(=O)NC(C)(C)C)c1` [Compound D30], the EC50 was < 5 µM.
Then `CC(C)OC(=O)Nc1ccc(-c2ncc(-c3ccc(NS(=O)(=O)c4ccccc4)cc3S(=O)(=O)NC(C)(C)C)s2)cc1` [Compound E1], with > 10 µM.
Under `CC(C)OC(=O)Nc1ccc(-c2ncc(-c3ccc(NS(=O)(=O)Cc4ccccc4)cc3S(=O)(=O)NC(C)(C)C)s2)cc1` [Compound E2] stands > 10 µM.
For `CC(=O)Nc1ccc(-c2cnc(-c3ccc(NC(C)=O)cc3S(=O)(=O)NC(C)(C)C)s2)c(S(=O)(=O)NC(C)(C)C)c1` [Compound E3], the EC50 is < 10 µM.
Then `CC(=O)Nc1ccc(-c2ncc(-c3ccc(N)cc3S(=O)(=O)NC(C)(C)C)s2)cc1` [Compound E4], with > 10 µM.
Under `CC(=O)Nc1ccc(-c2ncc(-c3ccc(NC(=S)NC(C)C)cc3S(=O)(=O)NC(C)(C)C)s2)cc1` [Compound E5] stands < 10 µM; under `CC(=O)Nc1ccc(-c2cnc(-c3ccc(N)cc3S(=O)(=O)NC(C)(C)C)s2)c(S(=O)(=O)NC(C)(C)C)c1` [Compound E8], > 10 µM.
Then `CC(=O)Nc1ccc(-c2cnc(-c3ccc(NC(=S)NC(C)C)cc3S(=O)(=O)NC(C)(C)C)s2)c(S(=O)(=O)NC(C)(C)C)c1` [Compound E9], with < 1 µM; and `CC(=O)Nc1ccc(-c2cnc(-c3ccc(NC(=O)OC(C)C)cc3)s2)c(S(=O)(=O)NC(C)(C)C)c1` [Compound E11], with < 5 µM; and `CC(C)(C)NS(=O)(=O)c1cc(Nc2nccs2)ccc1-c1cnc(-c2ccc(N)cc2)s1` [Compound E12], with > 10 µM.
As for `CC(=O)N(C)c1ccc(-c2cnc(-c3ccc(N)cc3)s2)c(S(=O)(=O)NC(C)(C)C)c1` [Compound E14], the 50% effective concentration (EC50) is > 10 µM.
Under `CC(=O)N(C)c1ccc(-c2cnc(-c3ccc(NC(=S)NC(C)C)cc3)s2)c(S(=O)(=O)NC(C)(C)C)c1` [Compound E15] stands > 10 µM; under `Cn1ccnc1Nc1ccc(-c2cnc(-c3ccc(N)cc3)s2)c(S(=O)(=O)NC(C)(C)C)c1` [Compound E16], > 10 µM.
Under `CC(C)NC(=S)Nc1ccc(-c2ncc(-c3ccc(Nc4nccn4C)cc3S(=O)(=O)NC(C)(C)C)s2)cc1` [Compound E17] stands > 10 µM; under `Cn1ccnc1Nc1ccc(-c2cnc(-c3ccc(N)cc3)s2)c(S(N)(=O)=O)c1` [Compound E18], > 10 µM; under `CC(C)NC(=S)Nc1ccc(-c2ncc(-c3ccc(Nc4nccn4C)cc3S(N)(=O)=O)s2)cc1` [Compound E19], > 10 µM.
Under `CC(=O)N(C)c1ccc(-c2cnc(-c3ccc(NC(=O)OC(C)C)cc3)s2)c(S(=O)(=O)NC(C)(C)C)c1` [Compound E20] stands < 10 µM; under `CC(=O)Nc1ccc(-c2ncc(-c3ccc(NC(=S)NC(C)C)cc3S(=O)(=O)NC(C)(C)C)s2)c(S(=O)(=O)NC(C)(C)C)c1` [Compound E21], < 5 µM; under `CC(=O)Nc1ccc(-c2cnc(-c3ccc(NC(=O)OCC(C)C)cc3)s2)c(S(=O)(=O)NC(C)(C)C)c1` [Compound G1], < 5 µM.
For the compound `COC(=O)Nc1ccc(-c2ncc(-c3ccc(NC(C)=O)cc3S(=O)(=O)NC(C)(C)C)s2)cc1` [Compound G2], the EC50 was < 10 µM.
On to `CCOC(=O)Nc1ccc(-c2ncc(-c3ccc(NC(C)=O)cc3S(=O)(=O)NC(C)(C)C)s2)cc1` [Compound G3], for which the concentration for a half-maximal effect (EC50) was < 1 µM.
Then `CC(=O)Nc1ccc(-c2cnc(-c3ccc(NC(=O)CC(C)C)cc3)s2)c(S(=O)(=O)NC(C)(C)C)c1` [Compound G4], with > 10 µM; and `CC(=O)Nc1ccc(-c2cnc(-c3ccc(NS(C)(=O)=O)cc3)s2)c(S(=O)(=O)NC(C)(C)C)c1` [Compound G5], with > 10 µM.
Then `CC(=O)Nc1ccc(-c2cnc(-c3ccc(NS(=O)(=O)c4ccccc4)cc3)s2)c(S(=O)(=O)NC(C)(C)C)c1` [Compound G6], with < 10 µM.
Then `CCS(=O)(=O)Nc1ccc(-c2ncc(-c3ccc(NC(C)=O)cc3S(=O)(=O)NC(C)(C)C)s2)cc1` [Compound G7], with > 10 µM.
For `COCCS(=O)(=O)Nc1ccc(-c2ncc(-c3ccc(NC(C)=O)cc3S(=O)(=O)NC(C)(C)C)s2)cc1` [Compound G8], the EC50 was > 10 µM.
Under `CNS(=O)(=O)Nc1ccc(-c2ncc(-c3ccc(NC(C)=O)cc3S(=O)(=O)NC(C)(C)C)s2)cc1` [Compound G9] stands > 10 µM; under `CC(=O)Nc1ccc(-c2cnc(-c3ccc(NC(=O)NC(C)C)cc3)s2)c(S(=O)(=O)NC(C)(C)C)c1` [Compound G10], < 10 µM.
Under `CC(=O)Nc1ccc(-c2cnc(-c3ccc(NC(=O)OC(C)(C)C)cc3)s2)c(S(=O)(=O)NC(C)(C)C)c1` [Compound G11, tert-butyl N-[4-[5-[4-acetamido-2-(tert-butylsulfamoyl)phenyl]thiazol-2-yl]phenyl]carbamate] stands < 5 µM; under `CC(C)OC(=O)Nc1ccc(-c2ncc(-c3ccc(NC(=O)[C@@H]4CCCN4)cc3S(=O)(=O)NC(C)(C)C)s2)cc1` [Compound H1], < 5 µM.
Under `CC(C)OC(=O)Nc1ccc(-c2ncc(-c3ccc(NC(=O)[C@H]4CCCN4)cc3S(=O)(=O)NC(C)(C)C)s2)cc1` [Compound H2] stands < 5 µM.
Consider `CC(C)OC(=O)Nc1ccc(-c2ncc(-c3ccc(NC(=O)C4CC4)cc3S(=O)(=O)NC(C)(C)C)s2)cc1` [Compound H3], for which the EC50 was < 5 µM.
Then `CCC(=O)Nc1ccc(-c2cnc(-c3ccc(NC(=O)OC(C)C)cc3)s2)c(S(=O)(=O)NC(C)(C)C)c1` [Compound H4], with < 1 µM; and `CC(C)OC(=O)Nc1ccc(-c2ncc(-c3ccc(NC(=O)OCc4ccccc4)cc3S(=O)(=O)NC(C)(C)C)s2)cc1` [Compound H5], with < 1 µM; and `CCOC(=O)Nc1ccc(-c2cnc(-c3ccc(NC(=O)OC(C)C)cc3)s2)c(S(=O)(=O)NC(C)(C)C)c1` [Compound H6], with < 1 µM.
Under `COC(=O)Nc1ccc(-c2cnc(-c3ccc(NC(=O)OC(C)C)cc3)s2)c(S(=O)(=O)NC(C)(C)C)c1` [Compound H7] stands < 1 µM; under `CC(C)OC(=O)Nc1ccc(-c2ncc(-c3ccc(NC(=O)OC(C)C)cc3S(=O)(=O)NC(C)(C)C)s2)cc1` [Compound H8], < 1 µM.
In the case of `CC(C)OC(=O)Nc1ccc(-c2ncc(-c3ccc(NC(=O)c4ccccc4)cc3S(=O)(=O)NC(C)(C)C)s2)cc1` [Compound H9], the EC50 was < 1 µM.
Under `CC(C)OC(=O)Nc1ccc(-c2ncc(-c3ccc(NC(=O)C(C)C)cc3S(=O)(=O)NC(C)(C)C)s2)cc1` [Compound H10] stands < 1 µM; under `CC(C)OC(=O)Nc1ccc(-c2ncc(-c3ccc(NS(C)(=O)=O)cc3S(=O)(=O)NC(C)(C)C)s2)cc1` [Compound H11], > 10 µM.
Then `CCNc1ccc(-c2cnc(-c3ccc(NC(=O)OC(C)C)cc3)s2)c(S(=O)(=O)NC(C)(C)C)c1` [Compound I1, isopropyl N-[4-[5-[2-(tert-butylsulfamoyl)-4-(ethylamino)phenyl]thiazol-2-yl]phenyl]carbamate], with < 5 µM.
